Data set [1] concerns [^3H]-cocaine uptake in hCMEC/D3 cells. The format is cell-based, human.
The conditions of data set [2]: ref Gatley et al., 1994; Chow et al., 2001; cited from earlier work.
The subject of data set [3] is cocaine transporter in hCMEC/D3 cells. Description: trans-stimulation of [^3H]-cocaine exit from hCMEC/D3 cells. Particulars: 10 µM unlabeled compound in KH buffer after 5 minutes loading; vs control.
For another data set, the system named is OCTs. Description: MPP+ transport in hCMEC/D3 cells. The format is cell-based, human. Particulars: TEA 2mM, data not shown.
The next data set relates to hCMEC/D3 cells. Description: cocaine uptake in hCMEC/D3 cells. The format is in vitro ADME, human.
The next data set concerns mouse luminal BBB. Description: cocaine brain transport by in situ mouse carotid perfusion. As to conditions: for Brain transport (K in): 9nM; for decrease in [^3H]-cocaine transport by unlabeled cocaine: unlabeled cocaine 10mM, mouse BBB. The format is in vivo.
Data set [4] in a line: pKa and ionised/neutral fraction of the drug as a function of pH. The format is physicochemical.
The conditions of data set [5]: in water; ref Lu et al., 2007; cited from earlier work.
The mark [6] stands for this setting: in vivo, concentrations less than K m.

Where “and” joins values, the source holds several entries; their conditions need not be identical. Identical values can stand only once.

With `CN1[C@H]2CC[C@@H]1[C@@H](C(=O)O)[C@@H](OC(=O)c1ccccc1)C2` [Benzoylecgonine], the “Relative uptake of [^3H]-cocaine” value in data set [1] was 104.1±3.0% and 94.2±14.9% and 72.0±11.4 %. Also, the brain uptake result in data set [2] is “no significant brain uptake”. Further, the “trans-stimulation of [^3H]-cocaine exit (trans-efflux zero)” value (from here on “trans-stimulation of [^3H]-cocaine exit”) in data set [3] is on record as “lack of a trans-stimulation effect”.
Take `COc1ccc2c3c1O[C@H]1[C@@H](O)C=C[C@H]4[C@@H](C2)N(C)CC[C@@]341` [Codeine]: the “Relative uptake of [^3H]-cocaine” value in data set [1] is reported as 63.4±5.0 %.
Take `CCCC(C(=O)c1ccc2c(c1)OCO2)N1CCCC1` (stereo not drawn) [MDPV, 3,4-methylenedioxypyrovalerone]: the “Relative uptake of [^3H]-cocaine” value in data set [1] worked out at 18.1±0.4 %. For the same molecule, the “trans-stimulation of [^3H]-cocaine exit” value in data set [3] is “strongly stimulated”.
For the molecule `C=CCN1CC[C@]23c4c5ccc(O)c4O[C@H]2C(=O)CC[C@@]3(O)[C@H]1C5` [Naloxone], the “Relative uptake of [^3H]-cocaine” value in data set [1] is 28.3±0.9 %.
Turning to `CN1CCC[C@H]1c1cccnc1` [Nicotine], the “trans-stimulation of [^3H]-cocaine exit” value in data set [3] is “strongly stimulated”.
`CC[N+](CC)(CC)CC` [TEA, tetraethylammonium]: the “Relative uptake of [^3H]-cocaine” value in data set [1] is reported as 120.6±9.8%. Also, the “effect on MPP^+ transport” value in the data set with OCTs is given as “significantly inhibited”.
`COc1ccc(CCN(C)CCCC(C#N)(c2ccc(OC)c(OC)c2)C(C)C)cc1OC` (stereo not drawn) [Verapamil]: the “Relative uptake of [^3H]-cocaine” value in data set [1] was 3.7±0.2 %.
Turning to `COC(=O)[C@H]1[C@@H](OC(=O)c2ccccc2)C[C@@H]2CC[C@H]1N2C` [cocaine, (−)-Cocaine], in the data set on hCMEC/D3 cells (KH buffer pH 7.40, 37°C, 5 minutes, 0.05–10mM), the “K m of carrier-mediated uptake” value was 123 ± 23 µM. In addition, in the data set with hCMEC/D3 cells (NH4Cl 30mM prepulse), the “increase in uptake after NH4Cl prepulse (acidification)” value is 1.85 fold. The “effect of NH4Cl pulse (alkalinization) on uptake” value in the data set with hCMEC/D3 cells (NH4Cl 30mM, pHe 7.40) is reported as “significantly decreased”. Besides, the “K passive (passive diffusion)” value in the data set with hCMEC/D3 cells (pH 7.40) is 1.09 ± 0.09 µL/min/mg; in the data set on mouse luminal BBB (Swiss mice, pHe 7.40), 4.5±1.0 µL/sec/g and ~ 4.5 µL/sec/g. Moreover, the “increase in uptake vs pHe 5.40” value in the data set on hCMEC/D3 cells (pHe 6.40) was found to be 2.5 fold; in the data set with hCMEC/D3 cells (pHe 7.40), 4.6 fold. The “transport in NMDG-buffer relative to KH buffer control” value in the data set with hCMEC/D3 cells (sodium replaced, pHe 7.40, 5 minutes, control 100.0±9.0%) stood at 97.0±9.7%. In addition, the “Brain transport (K in)” value with mouse luminal BBB (C57Bl/6 mice, 60 seconds, Krebs-carbonate pH 7.40) was 19 ± 2 µL/s/g; in the data set on mouse luminal BBB (DBA mice, 60 seconds, Krebs-carbonate pH 7.40) it was 21 ± 2 µL/s/g; in the data set with mouse luminal BBB (Fvb [Oct1,Oct2(−/−)] mice, 60 seconds), 19 ± 2 µL/s/g; in the data set with mouse luminal BBB (Fvb wild-type mice, 60 seconds, Krebs-carbonate pH 7.40), 20 ± 2 µL/s/g; in the data set with mouse luminal BBB (Swiss mice, 60 seconds, Krebs-carbonate pH 7.40) it was 20 ± 2 µL/s/g. In addition, the “apparent K m of carrier-mediated brain flux” value with mouse luminal BBB (Swiss mice, pHe 7.40) stood at 4500 ± 1800 µM. The “V max of carrier-mediated brain flux” value in the data set with mouse luminal BBB (Swiss mice, pHe 7.40, per g of brain) turned out to be 127.2 ± 34.5 nmol/s/g. In the data set with mouse luminal BBB (compared with the vascular flow marker diazepam), the total brain extraction entry was “about 47%”. The “concentration at which passive diffusion and carrier-mediated flux are equal” value in the data set on mouse luminal BBB (from Equation 7) is “around 24 mM”. The “carrier-mediated influx relative to passive diffusion” value in the data set with mouse luminal BBB (setting [6]) is recorded as 3.4 times. In addition, the carrier-mediated transport rate in the data set with mouse luminal BBB (setting [6]) is on record as ~ 15.5 µL/sec/g. The “increase in brain transport vs pHe 5.40” value in the data set with mouse luminal BBB (mice, 60 seconds, pHe 6.40) is 4.7 fold; with mouse luminal BBB (mice, 60 seconds, pHe 7.40), 16.9 fold. Besides, the “reduction in brain transport by NH4Cl pulse” value in the data set on mouse luminal BBB (mice, NH4Cl 30mM, pHe 7.40, 60 seconds) came to 1.8 fold. Also, the “decrease in brain transport with HEPES-buffer vs Krebs-carbonate buffer” value in the data set with mouse luminal BBB (mice, carbonate-free HEPES buffer) came to 1.8 fold. In addition, in the data set on mouse luminal BBB (mice, sodium-free and chloride-free buffer), the “increase in K in with mannitol perfusion buffer vs Krebs-carbonate” value stood at 1.35 fold. The “effect of lithium (Na+-free) buffer on brain transport” value in the data set with mouse luminal BBB (mice, vs regular Krebs-carbonate buffer) is on record as “no significant change”. In addition, the “net brain transport rate (K in) under unsaturated conditions” value in the data set with mouse luminal BBB (pharmacological concentration range) is recorded as “about 20 µL/sec/g”. In addition, the “decrease in [^3H]-cocaine transport by unlabeled cocaine” value in the data set with mouse luminal BBB (pHe 5.40) came out at 1.8 fold; in the data set with mouse luminal BBB (pHe 6.40), 2.0 fold; in the data set with mouse luminal BBB (pHe 7.40) it was 1.9 fold. In data set [4] (pH 7.4), this molecule gave a positively charged fraction of 94%. In data set [4] (pH 7.4), the uncharged fraction was found to be 6%. Further, the neutral fraction in data set [4] (pHe 5.40) is given as 0.06%; in data set [4] (pHe 6.40), 0.6%; in data set [4] (pHe 7.40) it was 5.9%. The cationic form in data set [4] (pHe 5.40 or 6.40) is above 99.4%. Moreover, the “basic pK a” value in data set [5] is 8.6.
For Ecgonine, the “Relative uptake of [^3H]-cocaine” value in data set [1] was 103.9±8.7% and 93.2±2.5% and 75.3±5.0 %.
